Values of other authors in US20250000937A1 (ZHAOKE (HONG KONG) OPHTHALMOLOGY PHARMACEUTICAL LTD., priority 2021, published 2025).

Experiments:
DED [1] = details: OPUS-1, mean baseline ICSS of 1.84
[2] = in vivo
DED [3] = details: in vivo

- Patients with instillation site pain [2]: 22%
SMILES: CS(=O)(=O)c1cccc(C[C@H](NC(=O)c2c(Cl)cc3c(c2Cl)CCN(C(=O)c2ccc4ccoc4c2)C3)C(=O)O)c1 [Lifitegrast]
- Proportion of patients with at least a 1-point improvement in ICSS from baseline to day 84 (DED [1]): 22.2%
- Time to show efficacy against DED signs and symptoms (DED [3]): 3 months
